The values that follow come from patent US12258625B2, “Compositions and methods relating to nucleic acid interaction reporters” (Trustees of Boston University, priority 2022, dated 2025).

For this test, the system named is miR-430 target site. Put plainly: microRNA sensor (Ago2 fused to Adar catalytic subunit). The test is classed as in vivo, zebrafish. Here is the method:
In this case, the writer comprises a protein fusion between a protein from the Argonaute family and the catalytic domain of the RNA-editing enzyme ADAR. The recorder must contain the target site of the microRNA of interest, usually the 6 to 8 nucleotides complementary to the miRNA seed region. In the presence of the writer, the recorder and the miRNA of interest, the ternary interaction is recorded as RNA editing in the recorder mRNA. The number of edits will be proportional to the strength of the microRNA-target site interaction. Other variants of this approach include expressing the Ago-Adar writer together with a library of recorders that containing all possible 8-nucleotide sequences as binding site. […]
FIG. 18 depicts a microRNA sensor. miR-430 is a small non-coding regulatory microRNA that recognize their targets mRNAs trough interaction and pairing. miR-430 binds to the effector protein Ago2 and together form a riboprotein complex that recognizes and binds to target mRNAs. miR-430 is the only microRNA expressed during early embryogenesis. […] Only with the tertiary interaction between Ago2, a microRNA, and the target is reconstituted, is editing detected.
Usage of the interactome recorder system to determine microRNA activity in vivo (FIG. 8A). […] In the presence of the writer, the recorder and the miRNA of interest, the ternary interaction is recorded as RNA editing in the recorder mRNA. […]

For `CC[C@H](C)[C@@H]1NC(=O)CNC(=O)[C@@H]2Cc3c([nH]c4cc(O)ccc34)[S+]([O-])C[C@@H](NC(=O)CNC1=O)C(=O)N[C@@H](CC(N)=O)C(=O)N1C[C@H](O)C[C@H]1C(=O)N[C@@H]([C@@H](C)[C@@H](O)CO)C(=O)N2` (stereo partly drawn) [alpha-Amanitin], the “editing of the recorder” value (embryos injected with alpha-Amanitin) was “not when endogenous miR-430 expression is inhibited”. Moreover, the miR-430 expression result (injection, early embryogenesis) is on record as “prevents its expression”.
